# Measured values published in publication PMC9224243, “Palmitic Amide Triggers Virus Life Cycle via Enhancing Host Energy Metabolism” (Frontiers in Microbiology, 2022).
# System: T1, acetate kinase
# T1 construct: gene ackA; purified recombinant acetate kinase
# Assay: ITC at […]°C ([…] protein, […] compound); also bead pull-down with MS and Western blot, and increased activity of the purified enzyme at […]
# Assay type: binding, Geobacillus sp. E263
structure (smiles),measurement,value
CCCCCCCCCCCCCCCC(N)=O [palmitic amide],Kd,13.2 ± 28.1 µM
